Test results taken from patent US20260130933A1, “PHARMACEUTICAL COMPOSITION FOR PREVENTION OR TREATMENT OF NEPHROPATHY AND/OR DIABETES MELLITUS, COMPRISING ENAVOGLIFLOZIN” (DAEWOONG PHARMACEUTICAL CO., LTD., priority 2022, published 2026).

Columns and labels:
[1] = Example 4: subgroup of patients with proteinuria (baseline UACR of 30 to 3500 g/kg) of Examples 1 to 3, percent change in UACR at week 24; type: in vivo, human; conditions: for UACR decrease at week 24 compared to baseline: proteinuria subgroup
Text: Among the patient groups that received the test drugs and the control drug of Examples 1 to 3, a group of patients with proteinuria (baseline UACR of 30 to 3500 g/kg) was additionally analyzed.
Among the patients in Example 1, a subgroup with baseline UACR of 30 to 3500 g/kg was classified as a group of patients with proteinuria.
Among the patients in Example 2, a subgroup with the baseline UACR of 30 to 3500 g/kg was classified as a group of patients with proteinuria.
Similarly, among the patients in Example 3, a subgroup with the baseline UACR of 30 to 3500 g/kg was classified as a group of patients with proteinuria.

[2] = Example 5: renal function-related safety, changes in eGFR in the phase 3 trials of Examples 1 to 3; type: in vivo, human; parameters: eGFR, change from baseline: unit not given here; conditions: for eGFR: in mL/min/1.73m2 (unit assumed)
Text: In phase 3 clinical trials of Examples 1 to 3, the changes in eGFR as an indicator of renal function-related safety were confirmed.

[3] = Pharmacokinetics (Tmax); type: in vivo; conditions: blood, oral
[4] = Example 6: phase 1 trial, 0.5 mg enavogliflozin in type 2 diabetes patients grouped by eGFR: urinary glucose excretion (UGE) and eGFR; type: in vivo, human
Description: The subjects were divided into the following four groups according to eGFR values, and urinary glucose excretion (UGE) and eGFR were estimated according to the administration of 0.5 mg of enavogliflozin as the test drug (stages 1 and 3: repeated administration (1 week), stages 2 and 4: single administration).

[5] = week 24, Example 2 (with metformin), per-protocol set, UACR 30-3500 g/kg at baseline
[6] = week 24, Example 3 (with metformin and gemigliptin), per-protocol set, UACR 30-3500 g/kg baseline
[7] = Week 6, Example 2 (combination therapy with metformin)
[8] = Week 6, Example 3 (combination therapy with metformin/gemigliptin)
[9] = Week 12, Example 2 (combination therapy with metformin)
[10] = Week 12, Example 3 (combination therapy with metformin/gemigliptin)
[11] = Week 18, Example 2 (combination therapy with metformin)
[12] = Week 18, Example 3 (combination therapy with metformin/gemigliptin)
[13] = Week 24, Example 2 (combination therapy with metformin)
[14] = Week 24, Example 3 (combination therapy with metformin/gemigliptin)
[15] = week 6, Example 2 (combination therapy with metformin)
[16] = week 6, Example 3 (combination therapy with metformin/gemigliptin)
[17] = week 12, Example 2 (combination therapy with metformin)
[18] = week 12, Example 3 (combination therapy with metformin/gemigliptin)
[19] = week 18, Example 2 (combination therapy with metformin)
[20] = week 18, Example 3 (combination therapy with metformin/gemigliptin)
[21] = week 24, Example 2 (combination therapy with metformin)
[22] = week 24, Example 3 (combination therapy with metformin/gemigliptin)
[23] = week 24, Example 1 (monotherapy), full analysis set, UACR 30-3500 g/kg at baseline

**Q.** Which “Percent change from baseline in UACR, Mean” value (from here on “Percent change … Mean”) [1, 5] does the source give for `CCOc1ccc(Cc2cc([C@@H]3O[C@H](CO)[C@@H](O)[C@H](O)[C@H]3O)ccc2Cl)cc1` [Dapagliflozin, reference compound] here?
**A.** Its value is −26.01%.

**Q.** What about the “Percent change from baseline in UACR, Median” value (“Percent change … Median” below) [1, 5] of the same compound?
**A.** The value was −39.48%.

**Q.** And the “UACR, Mean” value [1, 5]?
**A.** Its value is 93.37 g/kg.

**Q.** And the “UACR, Median” value [1, 5]?
**A.** The value was 45.70 g/kg.

**Q.** What about the “Percent change … Mean” value [1, 6] of the same compound?
**A.** Its value is −13.09%.

**Q.** What about the “Percent change … Median” value [1, 6] of the same compound?
**A.** The value was −39.84%.

**Q.** And the “UACR, Mean” value [1, 6]?
**A.** Its value is 80.60 g/kg.

**Q.** What about the “UACR, Median” value [1, 6] of the same compound?
**A.** Its value is 43.10 g/kg.

**Q.** And the eGFR [2, 7]?
**A.** The eGFR was 92.123.

**Q.** And the eGFR [2, 8]?
**A.** Its eGFR is 90.5384.

**Q.** And the eGFR [2, 9]?
**A.** The eGFR was 92.274.

**Q.** And the eGFR [2, 10]?
**A.** Its eGFR is 89.8198.

**Q.** And the eGFR [2, 11]?
**A.** Its eGFR is 94.828.

**Q.** And the eGFR [2, 12]?
**A.** The eGFR was 90.9546.

**Q.** What about the eGFR [2, 13] of the same compound?
**A.** The eGFR was 93.739.

**Q.** And the eGFR [2, 14]?
**A.** Its eGFR is 91.6344.

**Q.** And the “eGFR, change from baseline” value [2, 15]?
**A.** Its value is −1.908.

**Q.** What about the “eGFR, change from baseline” value [2, 16] of the same compound?
**A.** Its value is −1.1439.

**Q.** What about the “eGFR, change from baseline” value [2, 17] of the same compound?
**A.** Its value is −1.559.

**Q.** What about the “eGFR, change from baseline” value [2, 18] of the same compound?
**A.** Its value is −1.7177.

**Q.** What about the “eGFR, change from baseline” value [2, 19] of the same compound?
**A.** Its value is 0.897.

**Q.** What about the “eGFR, change from baseline” value [2, 20] of the same compound?
**A.** Its value is 0.0571.

**Q.** What about the “eGFR, change from baseline” value [2, 21] of the same compound?
**A.** Its value is −0.193.

**Q.** And the “eGFR, change from baseline” value [2, 22]?
**A.** Its value is 0.5790.

**Q.** For `OC[C@H]1O[C@@H](c2cc(Cc3ccc(C4CC4)cc3)c(Cl)c3c2CCO3)[C@H](O)[C@@H](O)[C@@H]1O` [Enavogliflozin, (2S,3R,4R,5S,6R)-2-(7-chloro-6 (4-cyclopropylbenzyl)-2,3-dihydrobenzofuran-4-yl)-6-(hydroxymethyl)tetrahydro-2H-pyran-3,4,5-triol], which “UACR decrease at week 24 compared to baseline” value (“UACR decrease” for short) ([1]; dual combination therapy with metformin) is on record?
**A.** Its value is 47.35%.

**Q.** What about the “UACR decrease” value ([1]; enavogliflozin administered alone) of the same compound?
**A.** Its value is 46.06%.

**Q.** And the “UACR decrease” value ([1]; triple combination therapy with metformin and gemigliptin)?
**A.** Its value is 36.03%.

**Q.** And the “UACR change, decrease compared to the dapagliflozin-administered patient group” value ([1]; two studies (Examples 2 and 3) combined)?
**A.** The value was 20.72%.

**Q.** And the “Percent change from baseline in UACR, Difference (enavogliflozin 0.3 mg − Placebo)” value [1, 23]?
**A.** The value was −50.89%.

**Q.** And the “Percent change … Mean” value [1, 23]?
**A.** The value was −46.06%.

**Q.** And the “Percent change … Median” value [1, 23]?
**A.** The value was −64.48%.

**Q.** What about the “UACR, Mean” value [1, 23] of the same compound?
**A.** Its value is 70.29 g/kg.

**Q.** What about the “UACR, Median” value [1, 23] of the same compound?
**A.** The value was 26.05 g/kg.

**Q.** What about the “Percent change from baseline in UACR, Difference (enavogliflozin 0.3 mg − dapagliflozin 10 mg)” value [1, 5] of the same compound?
**A.** The value was −21.33%.

**Q.** What about the “Percent change … Mean” value [1, 5] of the same compound?
**A.** The value was −47.35%.

**Q.** What about the “Percent change … Median” value [1, 5] of the same compound?
**A.** The value was −48.74%.

**Q.** What about the “UACR, Mean” value [1, 5] of the same compound?
**A.** Its value is 45.64 g/kg.

**Q.** What about the “UACR, Median” value [1, 5] of the same compound?
**A.** The value was 27.65 g/kg.

**Q.** And the “Percent change from baseline in UACR, Difference (enavogliflozin 0.3 mg − dapagliflozin 10 mg)” value [1, 6]?
**A.** The value was −22.94%.

**Q.** What about the “Percent change … Mean” value [1, 6] of the same compound?
**A.** Its value is −36.03%.

**Q.** What about the “Percent change … Median” value [1, 6] of the same compound?
**A.** Its value is −55.97%.

**Q.** What about the “UACR, Mean” value [1, 6] of the same compound?
**A.** The value was 75.40 g/kg.

**Q.** And the “UACR, Median” value [1, 6]?
**A.** Its value is 46.80 g/kg.

**Q.** What about the Tmax [3] of the same compound?
**A.** The Tmax was 1 to 2 h.

**Q.** And the eGFR ([2]; Week 6, Example 1 (monotherapy))?
**A.** Its eGFR is 88.464.

**Q.** What about the eGFR [2, 7] of the same compound?
**A.** The eGFR was 88.574.

**Q.** And the eGFR [2, 8]?
**A.** Its eGFR is 89.3847.

**Q.** What about the eGFR ([2]; Week 12, Example 1 (monotherapy)) of the same compound?
**A.** The eGFR was 90.142.

**Q.** And the eGFR [2, 9]?
**A.** Its eGFR is 90.566.

**Q.** And the eGFR [2, 10]?
**A.** Its eGFR is 92.0995.

**Q.** What about the eGFR ([2]; Week 18, Example 1 (monotherapy)) of the same compound?
**A.** The eGFR was 91.088.

**Q.** And the eGFR [2, 11]?
**A.** Its eGFR is 88.185.

**Q.** What about the eGFR [2, 12] of the same compound?
**A.** The eGFR was 89.9269.

**Q.** What about the eGFR ([2]; Week 24, Example 1 (monotherapy)) of the same compound?
**A.** The eGFR was 91.387.

**Q.** And the eGFR [2, 13]?
**A.** The eGFR was 88.056.

**Q.** What about the eGFR [2, 14] of the same compound?
**A.** Its eGFR is 91.9246.

**Q.** And the “Change in eGFR (renal function-related safety)” value ([2]; phase 3 trials of Examples 1 to 3)?
**A.** Its value is “no significant change in eGFR”.

**Q.** What about the “eGFR, change from baseline” value ([2]; week 6, Example 1 (monotherapy)) of the same compound?
**A.** The value was −0.845.

**Q.** What about the “eGFR, change from baseline” value [2, 15] of the same compound?
**A.** The value was 0.425.

**Q.** What about the “eGFR, change from baseline” value [2, 16] of the same compound?
**A.** Its value is 1.9291.

**Q.** And the “eGFR, change from baseline” value ([2]; week 12, Example 1 (monotherapy))?
**A.** Its value is 1.208.

**Q.** And the “eGFR, change from baseline” value [2, 17]?
**A.** The value was 2.488.

**Q.** What about the “eGFR, change from baseline” value [2, 18] of the same compound?
**A.** Its value is 0.9308.

**Q.** What about the “eGFR, change from baseline” value ([2]; week 18, Example 1 (monotherapy)) of the same compound?
**A.** The value was 2.072.

**Q.** What about the “eGFR, change from baseline” value [2, 19] of the same compound?
**A.** The value was 0.105.

**Q.** And the “eGFR, change from baseline” value [2, 20]?
**A.** Its value is −1.3048.

**Q.** And the “eGFR, change from baseline” value ([2]; week 24, Example 1 (monotherapy))?
**A.** The value was 2.371.

**Q.** And the “eGFR, change from baseline” value [2, 21]?
**A.** The value was −0.024.

**Q.** And the “eGFR, change from baseline” value [2, 22]?
**A.** Its value is 0.7726.

**Q.** What about the “Urinary glucose excretion (UGE) after administration” value ([4]; all renal function groups) of the same compound?
**A.** Its value is “increased”.

**Q.** And the “Change in eGFR” value ([4]; patient group with 30≤eGFR<60)?
**A.** Its value is “eGFR reduction was confirmed”.
